In patent US7244727B2, “Fused bicyclic nitrogen-containing heterocycles” (Japan Tobacco Inc., priority 2002, dated 2007) one finds IC50 and melting point data, which are given here for 35 compounds.

Usually IC50 stands for the midpoint of a concentration-inhibition curve. As usually defined, the melting point is the temperature of the solid-liquid transition.

Series [1] has as its target T1, human DGAT1 (Homo sapiens, UniProt O75907).
T1 construct: made in house; host or cells: insect cells (sf9, sf21 or High Five) infected with baculovirus; total cell membranes
T1 sequence (O75907 1-488): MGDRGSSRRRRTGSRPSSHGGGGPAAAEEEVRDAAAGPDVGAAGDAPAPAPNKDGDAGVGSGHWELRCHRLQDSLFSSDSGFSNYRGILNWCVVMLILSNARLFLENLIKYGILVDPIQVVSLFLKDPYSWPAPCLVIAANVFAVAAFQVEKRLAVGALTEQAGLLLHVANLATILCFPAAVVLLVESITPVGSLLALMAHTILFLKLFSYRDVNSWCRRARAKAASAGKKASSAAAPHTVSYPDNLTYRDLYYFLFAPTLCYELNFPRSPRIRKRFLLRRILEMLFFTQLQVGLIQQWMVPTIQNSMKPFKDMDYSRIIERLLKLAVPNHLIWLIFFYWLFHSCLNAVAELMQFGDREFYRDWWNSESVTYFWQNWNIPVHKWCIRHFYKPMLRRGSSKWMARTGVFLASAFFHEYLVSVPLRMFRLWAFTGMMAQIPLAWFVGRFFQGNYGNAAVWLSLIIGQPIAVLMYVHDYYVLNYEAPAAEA
Kind of series: DGAT Scintillation Proximity Assay (SPA) with membranes of insect cells expressing human flagtag DGAT1. The format is biochemical. The note with it: read-out: hDGAT1 IC50. The method in brief: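 Membranes (0.2 μg/well) from insect cells expressing human flag-tagged DGAT1 incubated with 10 μM compound and 200 μM dioleoyl glycerol substrate; mercuric chloride as inhibition control. Reaction stopped with WGA SPA beads in mercuric chloride, overnight bead coupling, then scintillation proximity signal read.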
In general terms: SPA uses beads or plates that emit light when radiolabelled molecules are held near them.

SMILES strings stand for the structures.

`Cc1nc(N)c2c(n1)OC(C)(C)C(c1ccc([C@H]3CC[C@H](CCC(=O)N4C[C@@H](O)[C@@H](O)C4)CC3)cc1)=N2` [Example 2-194] registered a melting point of 230 to 231 °C. Also, in series [1], the IC50 was in the range of 0.01 to 0.1 µM.
Turning to `Cc1nc(N)c2c(n1)OC(C)(C)C(c1ccc([C@H]3CC[C@H](CCc4nc(=O)o[nH]4)CC3)cc1)=N2` [Example 2-195], the melting point was 250 °C (dec.). Besides, the IC50 in series [1] lay in the range of 0.01 to 0.1 µM.
The like results for `Cc1nc(N)c2c(n1)OC(C)(C)C(c1ccc([C@H]3CC[C@H](CCc4nc(=O)s[nH]4)CC3)cc1)=N2` [Example 2-196] were, in that order, 211 °C (dec.) and 0.01 to 0.1 µM.
The like results for `Cc1nc(N)c2c(n1)OC(C)(C)C(c1ccc([C@H]3CC[C@H](CCc4nc(=O)on4C)CC3)cc1)=N2` [Example 2-197] were, in that order, 250 °C (dec.) and 0.01 to 0.1 µM.
The like results for `Cc1nc(N)c2c(n1)OC(C)(C)C(c1ccc([C@H]3CC[C@H](CCc4nc(=O)[nH]n4C)CC3)cc1)=N2` [Example 2-198] were, in that order, over 250 °C and 0.01 to 0.1 µM.
`Cc1nc(N)c2c(n1)OC(C)(C)C(c1ccc([C@H]3CC[C@H](CCc4nn[nH]n4)CC3)cc1)=N2` [Example 2-200] gave a melting point of over 250 °C. The IC50 in series [1] was under 0.01 µM.
The like results for `Cc1nc(N)c2c(n1)OC(C)(C)C(c1ccc([C@H]3CC[C@H](CCC(=O)Nc4nn[nH]n4)CC3)cc1)=N2` [Example 2-201] were, in that order, over 250 °C and under 0.01 µM.
The like results for `Cc1nc(N)c2c(n1)OC(C)(C)C(c1ccc([C@H]3CC[C@H](CC(C)(C)C(=O)O)CC3)cc1)=N2` [Example 2-202] were, in that order, over 225 °C and 0.01 to 0.1 µM.
The like results for `CC1(C)Oc2ncnc(N)c2N=C1c1ccc([C@H]2CC[C@H](C(=O)NCCO)CC2)cc1` [Example 2-203] were, in that order, 235 to 237 °C and 0.01 to 0.1 µM.
Regarding `CC1(C)Oc2ncnc(N)c2N=C1c1ccc([C@H]2CC[C@H](C(N)=O)CC2)cc1` [Example 2-204], the melting point was over 250 °C. Further, the IC50 in series [1] was in the range of 0.01 to 0.1 µM.
The like results for `CC1(C)Oc2ncnc(N)c2N=C1c1ccc([C@H]2CC[C@H](C(=O)NCC(=O)O)CC2)cc1` [Example 2-205] were, in that order, over 250 °C and 0.01 to 0.1 µM.
The like results for `CC1(C)Oc2ncnc(N)c2N=C1c1ccc([C@H]2CC[C@H](C(=O)N3CCC(C(=O)O)CC3)CC2)cc1` [Example 2-207] were, in that order, over 250 °C and 0.01 to 0.1 µM.
The like results for `CC1(C)Oc2ncnc(N)c2N=C1c1ccc([C@H]2CC[C@H](C(=O)N3CCCC3C(=O)O)CC2)cc1` (stereo partly shown) [Example 2-208] were, in that order, 193 to 194 °C and 0.01 to 0.1 µM.
For the compound `CC(=O)N[C@H]1CC[C@H](c2ccc(C3=Nc4c(N)ncnc4OC3(C)C)cc2)CC1` [Example 2-209], the melting point is over 250 °C. Moreover, the IC50 in series [1] was in the range of 0.01 to 0.1 µM.
As for `CC1(C)Oc2ncnc(N)c2N=C1c1ccc([C@H]2CC[C@H](NS(C)(=O)=O)CC2)cc1` [Example 2-210], the melting point was over 250 °C. The IC50 in series [1] lay in the range of 0.01 to 0.1 µM.
The like results for `CC(NC(=O)[C@H]1CC[C@H](c2ccc(C3=Nc4c(N)ncnc4OC3(C)C)cc2)CC1)C(=O)O` (stereo partly shown) [Example 2-211] were, in that order, over 250 °C and 0.01 to 0.1 µM.
The like results for `CC(C)(NC(=O)[C@H]1CC[C@H](c2ccc(C3=Nc4c(N)ncnc4OC3(C)C)cc2)CC1)C(=O)O` [Example 2-212] were, in that order, over 250 °C and under 0.01 µM.
The like results for `CC1(C)Oc2ncnc(N)c2N=C1c1ccc([C@H]2CC[C@H](C(=O)NC(CO)C(=O)O)CC2)cc1` (stereo partly shown) [Example 2-213] were, in that order, over 250 °C and 0.01 to 0.1 µM.
Compound `CN(CC(=O)O)C(=O)[C@H]1CC[C@H](c2ccc(C3=Nc4c(N)ncnc4OC3(C)C)cc2)CC1` [Example 2-214] showed a melting point of over 250 °C. The IC50 in series [1] was under 0.01 µM.
Regarding `CC1(C)Oc2ncnc(N)c2N=C1c1ccc([C@H]2CC[C@H](CN3C(=O)c4ccccc4C3=O)CC2)cc1` [Example 2-217], the melting point fell in the range of 225 to 227 °C. The IC50 in series [1] lay within 0.01 to 0.1 µM.
As for `CC1(C)Oc2ncnc(N)c2N=C1c1ccc([C@H]2CC[C@H](NS(N)(=O)=O)CC2)cc1` [Example 2-218], the melting point was determined as 212 °C. In series [1], the half-maximal inhibitory concentration (IC50) lay in the range of 0.01 to 0.1 µM.
The like results for `CN(CC(=O)O)C(=O)[C@H]1CC[C@H](c2ccc(C3=Nc4c(N)ncnc4OC3(C)C)cc2)CC1` [Example 2-219] were, in that order, 243 to 248 °C and 0.01 to 0.1 µM.
With `CC1(C)Oc2ncnc(N)c2NC1c1ccc([C@H]2CC[C@H](CS(N)(=O)=O)CC2)cc1` (stereo partly shown) [Example 2-221], the melting point is over 250 °C. For the same compound, the IC50 in series [1] is over 0.1 µM.
The like results for `CC1(C)Oc2ncnc(N)c2NC1c1ccc([C@H]2CC[C@H](NS(N)(=O)=O)CC2)cc1` (stereo partly shown) [Example 2-222] were, in that order, over 250 °C and over 0.1 µM.
The like results for `CC1(C)Oc2ncnc(N)c2N=C1c1ccc([C@H]2CC[C@H](CN3CCCCC3)CC2)cc1` [Example 2-224] were, in that order, 169 to 171 °C and over 0.1 µM.
The like results for `CC1(C)Oc2ncnc(N)c2N=C1c1ccc([C@H]2CC[C@H](CN3CCC(CCO)CC3)CC2)cc1` [Example 2-227] were, in that order, 198 to 200 °C and over 0.1 µM.
The compound `CC1(C)Oc2ncnc(N)c2N=C1c1ccc([C@H]2CC[C@H](CN3CCC(Cc4ccccc4)CC3)CC2)cc1` [Example 2-228] showed a melting point of 119 to 120 °C. The IC50 in series [1] is over 0.1 µM.
The like results for `CC1(C)Oc2ncnc(N)c2N=C1c1ccc([C@H]2CC[C@H](CN3CCCC3)CC2)cc1` [Example 2-229] were, in that order, 160 to 162 °C and over 0.1 µM.
The like results for `CC(C)(C)OC(=O)N1CCN(C[C@H]2CC[C@H](c3ccc(C4=Nc5c(N)ncnc5OC4(C)C)cc3)CC2)CC1` [Example 2-232] were, in that order, 171 to 172 °C and 0.01 to 0.1 µM.
The like results for `CC(O)[C@H]1CC[C@H](c2ccc(C3=Nc4c(N)ncnc4OC3(C)C)cc2)CC1` (stereo partly shown) [Example 2-233] were, in that order, 224 to 229 °C and over 0.1 µM.
The compound `CC1(C)Oc2ncnc(N)c2N=C1c1ccc([C@H]2CC[C@H](NC(=O)CO)CC2)cc1` [Example 2-234] had a melting point of 226 to 230 °C. For the same compound, in series [1], the IC50 lay in the range of 0.01 to 0.1 µM.
The like results for `CC1(C)Oc2ncnc(N)c2N=C1c1ccc([C@H]2CC[C@H](C(=O)N3CCCC3)CC2)cc1` [Example 2-235] were, in that order, 201 to 202 °C and 0.01 to 0.1 µM.
Regarding `CC1(C)Oc2ncnc(N)c2N=C1c1ccc([C@H]2CC[C@H](C(=O)N3CCCCC3)CC2)cc1` [Example 2-236], the melting point was 220 to 224 °C. Besides, in series [1], the 50% inhibitory concentration (IC50) was 0.01 to 0.1 µM.
`CC1(C)Oc2ncnc(N)c2N=C1c1ccc([C@H]2CC[C@H](C(=O)N3CCC(O)CC3)CC2)cc1` [Example 2-237] returned a melting point of 250 to 252 °C. The IC50 in series [1] lay in the range of 0.01 to 0.1 µM.
The like results for `CN1CCN(C(=O)[C@H]2CC[C@H](c3ccc(C4=Nc5c(N)ncnc5OC4(C)C)cc3)CC2)CC1` [Example 2-238] were, in that order, 190 to 191 °C and over 0.1 µM.
